According to ChEMBL document CHEMBL1687730, “New high-throughput screening assay to reveal similarities and differences in inhibitory sensitivities of multidrug ATP-binding cassette transporters” (Antimicrob Agents Chemother, 2009):

Assays:
[1] = target: Pleiotropic ABC efflux transporter of multiple drugs (Saccharomyces cerevisiae S288c, UniProt P33302); assay: Inhibition of Pdr5p-mediated rhodamine 6G transport in Saccharomyces cerevisiae MKPDR5h plasma membrane by spectrofluorometric assay
[2] = target: Pleiotropic ABC efflux transporter of multiple drugs (Saccharomyces cerevisiae S288c) (UniProt P33302); assay: Inhibition of Saccharomyces cerevisiae MKPDR5h multidrug transporter Pdr5p assessed as concentration required to threefold increase in rate of fluorescence signal relative to absence of inhibitor by fluorescein diacetate based high-throughput screening spectrofluorometric assay
Pleiotropic ABC efflux transporter of multiple drugs (Saccharomyces cerevisiae S288c), sequence (P33302 whole entry): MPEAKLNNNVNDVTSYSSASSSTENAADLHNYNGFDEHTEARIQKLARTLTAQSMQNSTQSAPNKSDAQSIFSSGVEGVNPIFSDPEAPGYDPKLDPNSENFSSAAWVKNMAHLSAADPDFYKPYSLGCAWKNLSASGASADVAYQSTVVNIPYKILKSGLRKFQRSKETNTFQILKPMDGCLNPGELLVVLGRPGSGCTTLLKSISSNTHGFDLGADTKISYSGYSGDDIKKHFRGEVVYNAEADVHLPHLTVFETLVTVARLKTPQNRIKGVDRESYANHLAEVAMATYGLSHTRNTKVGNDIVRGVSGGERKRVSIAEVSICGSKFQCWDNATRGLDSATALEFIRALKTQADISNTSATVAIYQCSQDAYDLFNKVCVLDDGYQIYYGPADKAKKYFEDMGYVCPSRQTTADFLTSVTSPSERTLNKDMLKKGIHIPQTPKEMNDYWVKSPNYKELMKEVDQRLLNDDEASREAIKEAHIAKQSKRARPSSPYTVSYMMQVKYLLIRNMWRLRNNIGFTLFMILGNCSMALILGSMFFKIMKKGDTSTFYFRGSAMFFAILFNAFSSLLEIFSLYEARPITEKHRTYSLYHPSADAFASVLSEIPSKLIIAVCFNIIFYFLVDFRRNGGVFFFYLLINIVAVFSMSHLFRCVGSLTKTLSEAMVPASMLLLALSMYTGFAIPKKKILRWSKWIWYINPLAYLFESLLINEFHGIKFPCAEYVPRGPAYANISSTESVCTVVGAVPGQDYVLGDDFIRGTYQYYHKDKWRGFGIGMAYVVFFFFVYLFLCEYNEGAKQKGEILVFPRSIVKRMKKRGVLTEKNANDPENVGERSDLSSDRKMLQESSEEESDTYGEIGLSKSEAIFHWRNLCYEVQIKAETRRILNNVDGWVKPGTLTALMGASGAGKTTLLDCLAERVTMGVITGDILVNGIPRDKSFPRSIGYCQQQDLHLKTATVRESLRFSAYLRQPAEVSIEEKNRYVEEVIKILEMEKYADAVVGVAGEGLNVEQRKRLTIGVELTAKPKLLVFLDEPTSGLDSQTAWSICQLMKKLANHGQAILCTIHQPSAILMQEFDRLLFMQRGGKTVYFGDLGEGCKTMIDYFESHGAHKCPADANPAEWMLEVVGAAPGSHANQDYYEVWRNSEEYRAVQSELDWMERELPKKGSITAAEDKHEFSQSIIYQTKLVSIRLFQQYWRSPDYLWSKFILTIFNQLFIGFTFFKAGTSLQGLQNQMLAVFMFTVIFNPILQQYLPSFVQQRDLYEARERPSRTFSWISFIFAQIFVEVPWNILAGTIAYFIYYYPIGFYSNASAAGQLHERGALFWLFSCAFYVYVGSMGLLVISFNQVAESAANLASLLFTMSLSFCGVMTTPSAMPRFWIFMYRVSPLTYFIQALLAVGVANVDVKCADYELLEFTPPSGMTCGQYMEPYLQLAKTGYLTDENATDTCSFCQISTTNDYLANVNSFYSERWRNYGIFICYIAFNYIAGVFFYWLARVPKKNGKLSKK

Saccharomyces cerevisiae [3] = assay: Inhibition of Saccharomyces cerevisiae MKCDR1h multidrug transporter Cdr1p assessed as concentration required to threefold increase in rate of fluorescence signal relative to absence of inhibitor by fluorescein diacetate based high-throughput screening spectrofluorometric assay
[4] = target: Snq2p (Saccharomyces cerevisiae (strain Lalvin EC1118 / Prise de mousse)(Baker's yeast)) (UniProt C8Z4T0); assay: Inhibition of Saccharomyces cerevisiae MKSNQ2h multidrug transporter Snq2p assessed as concentration required to threefold increase in rate of fluorescence signal relative to absence of inhibitor by fluorescein diacetate based high-throughput screening spectrofluorometric assay
Snq2p (Saccharomyces cerevisiae (strain Lalvin EC1118 / Prise de mousse)(Baker's yeast)), sequence (C8Z4T0 as listed by the source): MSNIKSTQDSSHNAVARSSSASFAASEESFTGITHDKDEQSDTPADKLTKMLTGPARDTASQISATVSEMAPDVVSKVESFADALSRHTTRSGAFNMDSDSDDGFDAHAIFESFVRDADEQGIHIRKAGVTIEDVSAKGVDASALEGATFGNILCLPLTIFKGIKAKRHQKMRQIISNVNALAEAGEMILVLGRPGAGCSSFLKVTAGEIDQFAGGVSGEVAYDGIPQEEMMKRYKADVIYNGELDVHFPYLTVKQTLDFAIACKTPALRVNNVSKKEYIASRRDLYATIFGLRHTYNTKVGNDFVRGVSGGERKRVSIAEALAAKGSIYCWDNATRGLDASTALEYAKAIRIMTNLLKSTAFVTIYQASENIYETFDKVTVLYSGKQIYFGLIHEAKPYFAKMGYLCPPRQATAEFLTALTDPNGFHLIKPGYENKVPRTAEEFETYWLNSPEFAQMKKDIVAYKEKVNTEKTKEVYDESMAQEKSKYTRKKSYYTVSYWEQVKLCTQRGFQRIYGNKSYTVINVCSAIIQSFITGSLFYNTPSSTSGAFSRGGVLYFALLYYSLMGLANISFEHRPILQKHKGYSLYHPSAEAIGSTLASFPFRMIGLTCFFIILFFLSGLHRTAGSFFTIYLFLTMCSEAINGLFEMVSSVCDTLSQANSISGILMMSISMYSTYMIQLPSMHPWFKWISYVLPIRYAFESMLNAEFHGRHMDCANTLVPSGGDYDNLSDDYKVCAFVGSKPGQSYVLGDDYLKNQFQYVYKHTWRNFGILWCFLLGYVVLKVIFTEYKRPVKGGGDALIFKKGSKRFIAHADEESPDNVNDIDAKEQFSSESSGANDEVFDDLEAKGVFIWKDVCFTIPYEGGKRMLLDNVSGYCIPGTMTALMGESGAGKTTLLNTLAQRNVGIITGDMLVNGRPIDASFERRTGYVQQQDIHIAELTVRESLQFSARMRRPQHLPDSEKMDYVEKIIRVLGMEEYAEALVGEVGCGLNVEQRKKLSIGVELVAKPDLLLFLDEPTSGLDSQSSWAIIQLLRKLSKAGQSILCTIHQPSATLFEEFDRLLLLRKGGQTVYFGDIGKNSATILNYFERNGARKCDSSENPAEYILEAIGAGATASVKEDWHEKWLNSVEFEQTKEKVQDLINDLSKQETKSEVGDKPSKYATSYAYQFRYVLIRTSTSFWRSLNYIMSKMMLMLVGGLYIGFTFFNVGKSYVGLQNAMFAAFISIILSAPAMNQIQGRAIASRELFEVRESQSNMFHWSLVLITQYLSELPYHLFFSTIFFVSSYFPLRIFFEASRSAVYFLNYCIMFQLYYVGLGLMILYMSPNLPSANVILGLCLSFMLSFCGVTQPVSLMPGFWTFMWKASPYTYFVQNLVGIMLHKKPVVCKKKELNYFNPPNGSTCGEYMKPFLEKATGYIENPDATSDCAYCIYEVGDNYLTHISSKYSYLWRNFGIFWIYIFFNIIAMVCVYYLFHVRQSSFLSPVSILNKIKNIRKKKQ

Saccharomyces cerevisiae [5] = assay: Inhibition of Saccharomyces cerevisiae MKCDR1h multidrug transporter Cdr1p assessed as potentiation of ketoconazole-induced antifungal activity by Checkerboard assay

Pleiotropic ABC efflux transporter of multiple drugs, sequence (P33302 whole entry): as the sequence (P33302 whole entry) above

Compound	IC50 [1] [µM]	INH [2] [µM]	INH (Saccharomyces cerevisiae [3]) [µM]	INH [4] [µM]	fractional inhibitory concentration index (FICI) (Saccharomyces cerevisiae [5])
NCCCCN1c2ccccc2Sc2ccc(Cl)cc21	0.7	1.9	1.9	2.1	0.06
NCCCCN1c2ccccc2Sc2ccc(C(F)(F)F)cc21	1.3	3.7	4.6	4.6	–
NCCCCN1c2ccccc2Sc2ccccc21	3.1	7	29	13.5	–
NCCCN1c2ccccc2Sc2ccc(C(F)(F)F)cc21	6.4	7.7	6.5	6.9	–
NCCCN1c2ccccc2Sc2ccccc21	7.4	14.7	36	12.4	–
CSc1ccc2c(c1)N(CCC1CCCCN1C)c1ccccc1S2 (stereo not drawn)	–	17	26	19.4	–
O=C(O)CCCCCCNC1c2ccccc2CCc2ccccc21 [AMINEPTINE]	> 400	> 433	> 433	> 433	–
CN(C)CCCN1c2ccccc2Sc2ccc(Cl)cc21 [CHLORPROMAZINE]	4.5	57	57	32	–
CN(C)CC/C=C1/c2ccccc2Sc2ccc(Cl)cc21 [CHLORPROTHIXENE]	5.1	26	53	22	–
COc1ccc2c(c1)N(C[C@@H](C)CN(C)C)c1ccccc1S2 [DEXTROMEPROMAZINE]	9	101	273	100	–
CCN(CC)CCN1c2ccccc2Sc2ccccc21 [DIETHAZINE]	10.3	331	317	239	–
OCCN1CCN(CCCN2c3ccccc3Sc3ccc(C(F)(F)F)cc32)CC1 [FLUPHENAZINE]	1.7	5.4	12.4	8.8	0.09
CN(C)CCCN1c2ccccc2CCc2ccccc21 [IMIPRAMINE]	22	166	> 433	198	–
COc1ccc2c(c1)N(C[C@H](C)CN(C)C)c1ccccc1S2 [LEVOMEPROMAZINE]	9.6	128	252	100	–
NCCCN1c2ccccc2Sc2ccc(Cl)cc21 [NOR2-CHLORPROMAZINE]	3.2	4.2	4.3	5.8	–
OCCN1CCN(CCCN2c3ccccc3Sc3ccc(Cl)cc32)CC1 [PERPHENAZINE]	1.4	6.4	17.2	13.1	–
c1ccc2c(c1)Nc1ccccc1S2 [PHENOTHIAZINE]	> 400	> 433	> 433	90	–
CN1CCN(CCCN2c3ccccc3Sc3ccc(Cl)cc32)CC1 [PROCHLORPERAZINE]	1.7	7.2	11	6.6	–
CN(C)CCCN1c2ccccc2Sc2ccccc21 [PROMAZINE]	11.3	96	278	131	–
CC(CN1c2ccccc2Sc2ccccc21)N(C)C (stereo not drawn) [PROMETHAZINE]	17.7	285	275	117	–
CCSc1ccc2c(c1)N(CCCN1CCN(C)CC1)c1ccccc1S2 [THIETHYLPERAZINE]	2.3	5.6	9.4	3.2	–
CN1CCN(CCCN2c3ccccc3Sc3ccc(C(F)(F)F)cc32)CC1 [TRIFLUOPERAZINE]	1.4	8.3	9.8	6.9	–
CN(C)CCCN1c2ccccc2Sc2ccc(C(F)(F)F)cc21 [TRIFLUPROMAZINE]	4.9	47	49	47	–
